# Reference: patent publication US20090061515A1, “Methods of inhibiting or suppressing cellular proliferation” (priority 2007, published 2009)
# Columns and labels:
# [1] = system: Normal Human Dermal Fibroblast (NHDF) cells; assay: Cell proliferation and viability assays (CyQuant, CellTiter-Glo, CellTiter 96), NHDF (Example 5); type: cell-based; conditions: 48 hours
# Text: Multiple assays were used to test a variety of cellular properties expressed after exposure of different cells types to 5,6-dihydroxy-hexan-2-one. A cell proliferation assay available under the trade designation CyQuant from Invitrogen Corporation (Carlsbad, Calif.) determines the density of cells in culture by using a green fluorescent dye which fluoresces when bound to cellular nucleic acids. The amount of nucleic acid present is proportional to the amount of living cells in culture. […]
# The amount of ATP present is proportional to the measured amount of a luminescent signal and therefore the amount of viable cells. […] The absorbance read is proportional to the amount of metabolic activity present in the cells.
# Normal human dermal fibroblast (NHDF) cells and coronary artery smooth muscle cells (CASMC) in culture were exposed to 5,6-dihydroxy-hexan-2-one at concentrations of 10 microgram/ml, 1 mg/ml, and 10 mg/ml, for 48 hours, after which the cell culture wells were analyzed for cell proliferation and viability. […] FIG. 17 is a graphical representation of fibroblast cell numbers measured after 48 hours exposure to different concentrations of 5,6-dihydroxy-hexan-2-one. FIG. 18 is a graphical representation of smooth muscle cell numbers measured after 48 hours exposure to different concentrations of 5,6-dihydroxy-hexan-2-one. […]
# [2] = system: human Glioblastoma/Astrocytoma U87 cells; assay: Cell migration after 48 hours exposure, U87 (Example 6); type: cell-based; conditions: U87, 10 mg/ml and 1 mg/ml
# Procedure: Evaluation of the effects of 5,6-dihydroxy-hexan-2-one on human umbilical vein endothelial cells (HUVEC) and Glioblastoma/Astrocytoma cells U87 cellular proliferation and migration during 120 hours following 48 hour exposure to 5,6-dihydroxy-hexan-2-one at concentration of 10 mg/ml, 1 mg/ml, 100 micrograms/ml. Controls were cells not exposed to the agent.
# In order to further explore the effects of this compound, experiments to evaluate the dose-effect response on the antiproliferative effect and on cell migration were conducted on two cell lines, human umbilical vein endothelial cells (HUVEC) and Glioblastoma/Astrocytoma cells (U87), over 120 hours after 48 hours of exposure to the compound.
# FIGS. 24(a)-(l) are pictures that visually display the migration over time of human Glioblastoma/Astrocytoma U87 cells after 48 hours exposure to various concentrations of 5,6-dihydroxy-hexan-2-one. Specifically, FIGS. 24(a)-(d) represent the control, FIGS. 24(e)-(h) represent 10 mg/ml, and FIGS. 24(i)-(l) represent 1 mg/ml 5,6-dihydroxy-hexan-2-one. FIGS. 24(a), (e), and (i) represent migration after 2 hours; FIGS. 24(b), (f), and (j) represent migration after 14 hours; FIGS. 24(c), (g), and (k) represent migration after 20 hours; and FIGS. […], (h), and (l) represent migration after 48 hours.
smiles,measurement,setting,value
"CC(=O)CCC(O)CO (stereo not drawn) [5,6-dihydroxy-hexan-2-one]",cell proliferation,[1]; 10 mg/ml,inhibition of cell proliferation
same,cell proliferation,"[1]; other concentrations (10 microgram/ml, 1 mg/ml)",did not show this effect
same,cell migration,[2],did not shown differences
